Laboratory results as given in the supplement of paper PMC10307832.

Columns and labels:
Test in all cases: relative viability (nuclei count vs DMSO), 5 days (fraction); higher = more cells survive
Dabrafenib + Luminespib = compound: CC(C)(C)c1nc(-c2cccc(NS(=O)(=O)c3c(F)cccc3F)c2F)c(-c2ccnc(N)n2)s1 [Dabrafenib] + CCNC(=O)c1noc(-c2cc(C(C)C)c(O)cc2O)c1-c1ccc(CN2CCOCC2)cc1 [Luminespib] (partner 0.01 µM)
Outline: (§1)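 Relative viability equals treated-well nuclei counts divided by vehicle-well nuclei counts. Counts came from 4× images of lung cancer cell lines grown in 1536-well plates for 5 days after pin-tool dosing on the day after seeding. Dosing used one drug alone or a fixed anchor-drug dose plus five library-drug doses (not always all listed) in √10 steps, and values are medians of duplicate plates.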

VX-702 + Linsitinib = compound: NC(=O)c1ccc(N(C(N)=O)c2c(F)cccc2F)nc1-c1ccc(F)cc1F [VX-702] + C[C@]1(O)C[C@@H](c2nc(-c3ccc4ccc(-c5ccccc5)nc4c3)c3c(N)nccn32)C1 [Linsitinib] (partner 1 µM)
Outline: as §1

VX-702 + Decitabine = compound: NC(=O)c1ccc(N(C(N)=O)c2c(F)cccc2F)nc1-c1ccc(F)cc1F [VX-702] + Nc1ncn([C@H]2C[C@H](O)[C@@H](CO)O2)c(=O)n1 [Decitabine] (partner 2 µM)
Outline: as §1

VX-702 + Trametinib = compound: NC(=O)c1ccc(N(C(N)=O)c2c(F)cccc2F)nc1-c1ccc(F)cc1F [VX-702] + CC(=O)Nc1cccc(-n2c(=O)n(C3CC3)c(=O)c3c(Nc4ccc(I)cc4F)n(C)c(=O)c(C)c32)c1 [Trametinib] (partner 0.02 µM)
Outline: as §1

Row | Cell Line | relative viability (Dabrafenib + Luminespib; first compound 0.009487 µM) | relative viability (Dabrafenib + Luminespib; first compound 0.03 µM) | relative viability (Dabrafenib + Luminespib; first compound 0.09487 µM) | relative viability (Dabrafenib + Luminespib; first compound 0.3 µM) | relative viability (VX-702 + Linsitinib; first compound 0.02 µM) | relative viability (VX-702 + Linsitinib; first compound 0.2 µM) | relative viability (VX-702 + Linsitinib; first compound 0.6325 µM) | relative viability (VX-702 + Linsitinib; first compound 2 µM) | relative viability (VX-702 + Decitabine; first compound 0.02 µM) | relative viability (VX-702 + Decitabine; first compound 0.2 µM) | relative viability (VX-702 + Decitabine; first compound 0.6325 µM) | relative viability (VX-702 + Decitabine; first compound 2 µM) | relative viability (VX-702 + Trametinib; first compound 0.02 µM) | relative viability (VX-702 + Trametinib; first compound 0.2 µM) | relative viability (VX-702 + Trametinib; first compound 0.6325 µM) | relative viability (VX-702 + Trametinib; first compound 2 µM) | relative viability (Dabrafenib + Luminespib; first compound 0.003 µM)
1 | NCI-H647 | 0.282 | 0.138 | 0.19 | 0.217 | 1.21 | 0.941 | 1.18 | 1.4 | 0.475 | 0.383 | 0.335 | 0.306 | 0.555 | 0.571 | 0.497 | 0.678 | 
2 | NCI-H1793 | 0.231 |  |  | 0.175 | 0.815 | 0.73 | 0.687 | 0.974 | 0.545 |  | 0.449 | 0.458 | 0.438 |  | 0.452 | 0.451 | 
3 | LU99A | 0.212 | 0.225 | 0.3 | 0.29 | 0.511 | 0.517 | 0.466 | 0.515 | 0.93 | 0.869 | 0.93 | 0.872 | 0.563 | 0.532 | 0.512 | 0.5 | 0.203
4 | BEN | 0.549 |  | 0.344 | 0.332 | 0.828 | 0.798 | 0.967 | 0.852 | 0.724 | 0.646 | 0.694 | 0.776 | 1.1 | 0.907 | 1.03 | 1.07 | 
5 | EKVX | 1.03 | 0.852 | 0.819 | 0.897 | 0.946 | 1.01 | 1.01 | 0.988 | 0.425 | 0.29 | 0.303 | 0.276 | 0.241 | 0.291 | 0.307 | 0.281 | 0.996
6 | SK-LU-1 | 0.234 | 0.169 | 0.22 | 0.201 | 1.06 | 1.03 | 1.08 | 1.22 | 0.625 | 0.61 | 0.653 | 0.702 | 0.497 | 0.472 | 0.486 | 0.651 | 
7 | COR-L 105 | 0.936 | 0.916 | 0.949 | 0.977 | 0.965 | 0.916 | 0.956 | 1.4 | 0.619 | 0.722 | 0.696 | 0.636 | 0.472 | 0.437 | 0.395 | 0.42 | 0.852
8 | SW 1573 | 0.314 | 0.289 | 0.633 | 0.217 | 0.918 | 0.737 | 0.647 | 0.659 | 0.518 | 0.434 | 0.412 | 0.437 | 0.569 | 0.467 | 0.473 | 0.649 | 0.179
9 | NCI-H2087 | 0.202 | 0.163 | 0.154 | 0.207 | 1.07 | 0.982 | 0.879 | 1.01 | 0.288 | 0.242 | 0.254 | 0.294 | 0.201 | 0.181 | 0.186 | 0.228 | 
10 | NCI-H358 | 0.396 | 0.35 |  | 0.237 | 0.748 | 0.728 | 0.613 | 0.963 | 0.204 | 0.333 | 0.244 | 0.223 | 0.147 | 0.143 | 0.126 | 0.143 | 
11 | NCI-H1975 | 0.189 | 0.165 | 0.278 | 0.191 | 1.01 | 0.998 | 0.887 | 1.17 | 0.367 | 0.35 | 0.344 | 0.362 | 0.383 | 0.35 | 0.29 | 0.329 | 0.159
12 | HCC-15 | 0.634 | 0.285 | 0.0381 | 0.52 | 0.825 | 0.766 | 0.843 | 0.952 | 0.656 | 0.586 | 0.627 | 0.647 | 0.345 | 0.364 | 0.322 | 0.294 | 0.379
13 | HOP-62 | 0.878 | 0.977 | 0.795 | 0.872 | 0.918 | 0.851 | 1.04 | 1.05 | 0.209 | 0.166 | 0.206 | 0.196 | 0.419 | 0.397 | 0.469 | 0.45 | 0.936
14 | NCI-H1792 | 0.474 | 0.412 | 0.423 | 0.538 | 0.404 | 0.484 | 0.458 | 0.5 | 0.555 | 0.614 | 0.491 | 0.532 | 0.425 | 0.394 | 0.397 | 0.482 | 
15 | EMC-BAC-2 | 1.23 | 1 | 1.13 | 1.28 | 0.83 | 0.796 | 0.816 | 0.892 | 0.969 | 0.962 | 0.944 | 0.885 | 0.914 | 0.921 | 0.842 | 0.725 | 1.16
16 | NCI-H1355 | 0.83 | 0.611 | 0.628 | 0.69 | 0.76 | 0.802 | 0.749 | 0.866 | 0.348 | 0.33 | 0.366 | 0.318 | 0.464 | 0.38 | 0.368 | 0.416 | 
17 | NCI-H3122 | 0.0926 | 0.0643 | 0.131 | 0.0575 | 1.02 | 1.02 | 0.985 | 1.01 | 0.435 | 0.371 | 0.417 | 0.435 | 0.24 | 0.201 | 0.206 | 0.203 | 0.0822
